Measurements reported in ChEMBL document CHEMBL3232945 (Eur J Med Chem, 2014).

Legend:
Rattus norvegicus [1] = assay: Toxicity in anesthetized-normotensive Wistar rat assessed as heart rate at 15 mg/kg, ip measured immediately at 0 min (reference value: 316.62 +/- 9.643 bpm); type: organism-based; design: dose 15 mg/kg, route intraperitoneal; settings: in vivo, 0 h
Rattus norvegicus [2] = assay: Toxicity in anesthetized-normotensive Wistar rat assessed as heart rate at 15 mg/kg, ip after 15 mins (reference value: 313.93 +/- 9.912 bpm); type: organism-based; design: dose 15 mg/kg, route intraperitoneal; settings: in vivo, 0.25 h
Rattus norvegicus [3] = assay: Toxicity in anesthetized-normotensive Wistar rat assessed as heart rate at 15 mg/kg, ip after 30 mins (reference value: 317.68 +/- 7.631 bpm); type: organism-based; design: dose 15 mg/kg, route intraperitoneal; settings: in vivo, 0.5 h
Rattus norvegicus [4] = assay: Toxicity in anesthetized-normotensive Wistar rat assessed as heart rate at 15 mg/kg, ip after 60 mins (reference value: 314.96 +/- 9.442 bpm); type: organism-based; design: dose 15 mg/kg, route intraperitoneal; settings: in vivo, 1 h
Rattus norvegicus [5] = assay: Antiarrhythmic activity in barium chloride-induced Wistar rat assessed as increase in appearance time of arrhythmia at 15 mg/kg, ip administered 60 mins before barium chloride challenge (reference value: 129.4 +/- 4.373 sec); type: functional, Heart; settings: route intraperitoneal
Rattus norvegicus [6] = assay: Antiarrhythmic activity in barium chloride-induced Wistar rat assessed as increase in mortality time at 15 mg/kg, ip administered 60 mins before barium chloride challenge (reference value: 682.8 +/- 9.656 secs); type: functional, Heart; settings: route intraperitoneal
Rattus norvegicus [7] = assay: Toxicity in anaesthetized-Wistar rat assessed as Q-T ECG interval at 15 mg/kg, ip after 45 mins (reference value: 78.8 +/- 0.927 ms); type: organism-based; design: dose 15 mg/kg, route intraperitoneal; settings: in vivo, 0.75 h
Rattus norvegicus [8] = assay: Toxicity in anaesthetized-Wistar rat assessed as Q-T ECG interval at 15 mg/kg, ip after 60 mins (reference value: 79.7 +/- 0.965 ms); type: organism-based; design: dose 15 mg/kg, route intraperitoneal; settings: in vivo, 1 h
Rattus norvegicus [9] = assay: Antihypertensive activity in Wistar rat assessed as mean arterial pressure at 10 mg/kg, ip measured immediately at 0 min (reference value: 194.08 +/- 1.962 mmHg); type: functional, Artery; settings: route intraperitoneal
Rattus norvegicus [10] = assay: Antihypertensive activity in Wistar rat assessed as mean arterial pressure at 10 mg/kg, ip measured immediately at 15 mins (reference value: 195.68 +/- 1.623 mmHg); type: functional, Artery; settings: route intraperitoneal
Rattus norvegicus [11] = assay: Antihypertensive activity in Wistar rat assessed as mean arterial pressure at 10 mg/kg, ip measured immediately at 30 mins (reference value: 194.72 +/- 1.002 mmHg); type: functional, Artery; settings: route intraperitoneal
Rattus norvegicus [12] = assay: Antihypertensive activity in Wistar rat assessed as mean arterial pressure at 10 mg/kg, ip measured immediately at 45 mins (reference value: 193.96 +/- 0.865 mmHg); type: functional, Artery; settings: route intraperitoneal
Rattus norvegicus [13] = assay: Antihypertensive activity in Wistar rat assessed as mean arterial pressure at 10 mg/kg, ip measured immediately at 60 mins (reference value: 195.11 +/- 0.531 mmHg); type: functional, Artery; settings: route intraperitoneal
Rattus norvegicus [14] = assay: Toxicity in […] normotensive Wistar rat assessed as mean arterial pressure at 10 mg/kg, ip measured immediately at 0 min (reference value: 94.21 +/- 2.065 mmHg); type: organism-based, Artery; design: dose 10 mg/kg, route intraperitoneal; settings: in vivo, 0 h
Rattus norvegicus [15] = assay: Toxicity in […] normotensive Wistar rat assessed as mean arterial pressure at 10 mg/kg, ip after 15 mins (reference value: 93.81 +/- 1.543 mmHg); type: organism-based, Artery; design: dose 10 mg/kg, route intraperitoneal; settings: in vivo, 0.25 h
Rattus norvegicus [16] = assay: Toxicity in […] normotensive Wistar rat assessed as mean arterial pressure at 10 mg/kg, ip after 30 mins (reference value: 94.68 +/- 1.213 mmHg); type: organism-based, Artery; design: dose 10 mg/kg, route intraperitoneal; settings: in vivo, 0.5 h
Rattus norvegicus [17] = assay: Toxicity in […] normotensive Wistar rat assessed as mean arterial pressure at 10 mg/kg, ip after 45 mins (reference value: 94.83 +/- 0.943 mmHg); type: organism-based, Artery; design: dose 10 mg/kg, route intraperitoneal; settings: in vivo, 0.75 h
Rattus norvegicus [18] = assay: Toxicity in […] normotensive Wistar rat assessed as mean arterial pressure at 10 mg/kg, ip after 60 mins (reference value: 95.07 +/- 1.973 mmHg); type: organism-based, Artery; design: dose 10 mg/kg, route intraperitoneal; settings: in vivo, 1 h

Compound | Activity (Rattus norvegicus [1]) [bpm] | Activity (Rattus norvegicus [2]) [bpm] | Activity (Rattus norvegicus [3]) [bpm] | Activity (Rattus norvegicus [4]) [bpm] | Time (Rattus norvegicus [5]) [s] | Time (Rattus norvegicus [6]) [s] | Activity (Rattus norvegicus [7]) [min] | Activity (Rattus norvegicus [8]) [ms] | Activity (Rattus norvegicus [9]) [mmHg] | Activity (Rattus norvegicus [10]) [mmHg] | Activity (Rattus norvegicus [11]) [mmHg] | Activity (Rattus norvegicus [12]) [mmHg] | Activity (Rattus norvegicus [13]) [mmHg] | Activity (Rattus norvegicus [14]) [mmHg] | Activity (Rattus norvegicus [15]) [mmHg] | Activity (Rattus norvegicus [16]) [mmHg] | Activity (Rattus norvegicus [17]) [mmHg] | Activity (Rattus norvegicus [18]) [mmHg]
C=C[C@H]1CN2CC[C@H]1C[C@@H]2[C@@H](O)c1ccnc2ccc(OC)cc12 [QUINIDINE] | 311.8 | 285.16 | 246.18 | 286.32 | 394.8 | 1281.8 | 91.3 | 90.6 | – | – | – | – | – | – | – | – | – | –
CC(C)NCC(O)COc1cccc2ccccc12 (stereo not drawn) [PROPRANOLOL] | – | – | – | – | – | – | – | – | 195.12 | 171.73 | 148.53 | 120.32 | 152.26 | 92.56 | 79.43 | 62.96 | 65.87 | 70.21
